Where a name gives a salt, the structure may show the parent alone. Read-outs that look alike come from different tables or passages of the source.
Assays:
S1P1 [1] = biological target: T1, S1P1 (Homo sapiens, UniProt P21453); assay: Receptor binding assay, [33P]sphingosine 1-phosphate competition, S1P1
Procedure, shortened: (§1)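 SPA competition binding on CHO-cell membranes with 30 pM (S1P1) or 15 pM (S1P3) [33P]S1P in 50 mM HEPES pH 7.5, 5 mM MgCl2, 100 mM NaCl, 0.4% fatty acid-free BSA, 60 min at RT. Percent inhibition normalised to total binding and to non-specific binding (1000-fold unlabelled S1P), triplicates averaged.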

S1P1 [2] = biological target: T1, S1P1; assay: 35S-GTPγS binding assay, S1P1 membranes; assay type: biochemical; settings: membranes from CHO cells expressing S1P1; read-out: S1P1/GTPG EC50
Method: (§2) Membranes Preparation: Membranes were prepared from CHO cells expressing S1P1 or S1P3 for use in ligand and 35S-GTPγS binding studies. Cells were suspended in 50 mM TRIS, pH 7.4, 2 mM EDTA, 250 mM Sucrose (buffer A) and 1× Complete protease inhibitor cocktail (Roche), and disrupted at 4° C. by N2 decompression using a cell disruption bomb (Parr Instrument). Following centrifugation at 1000 RPM for 10 min at 4° C., the supernatant was diluted (2×) in buffer A and centrifuged again at 19000 RPM for 75 min at 4° C. The pellet was then suspended in 10 mM HEPES, pH 7.4, 1 mM EDTA, 250 mM Sucrose (Buffer B), and 1× Complete EDTA-free protease inhibitor cocktail and homogenized using a potter. Membranes were flash frozen in liquid N2 and stored at −80° C.
(§3) Measurements of 35S-GTPγS Binding: Membranes (1 to 10 μg protein) prepared as described above, were incubated in 96-well Scintiplates (PerkinElmer) with test compounds diluted in DMSO, in 140 μl of 20 mM HEPES, pH 7.4, 10 mM MgCl2, 2 μg/well Saponin, 0.2% fatty acid free BSA (Assay buffer), 125 mM NaCl and 1.5 μM GDP. The assay was initiated with the addition of 60 μl of 1.5 nM [35S]-GTPγS (1100 Ci/mmol; GE Healthcare) in assay buffer. After 60 min incubation at 30° C. on a shaker, plates were centrifuged for 10 min at 2000 RPM. Supernatant was discarded and membrane bound radioactivity was measured on a PerkinElmer 1450 MicroBeta counter. Triplicate samples were averaged and expressed as % response relative to S1P activation in absence of compound (n=2).
The “potency” or the “activity” of the compounds is determined by the EC50 values as evaluated in the above described 35S-GTPγS binding assay.

S1P3 [3] = biological target: T2, S1P3 (Homo sapiens, UniProt Q99500); assay: 35S-GTPγS binding assay, S1P3 membranes; assay type: biochemical; settings: membranes from CHO cells expressing S1P3; read-out: S1P3/GTPG EC50
T2 sequence (Q99500 whole entry, species assumed): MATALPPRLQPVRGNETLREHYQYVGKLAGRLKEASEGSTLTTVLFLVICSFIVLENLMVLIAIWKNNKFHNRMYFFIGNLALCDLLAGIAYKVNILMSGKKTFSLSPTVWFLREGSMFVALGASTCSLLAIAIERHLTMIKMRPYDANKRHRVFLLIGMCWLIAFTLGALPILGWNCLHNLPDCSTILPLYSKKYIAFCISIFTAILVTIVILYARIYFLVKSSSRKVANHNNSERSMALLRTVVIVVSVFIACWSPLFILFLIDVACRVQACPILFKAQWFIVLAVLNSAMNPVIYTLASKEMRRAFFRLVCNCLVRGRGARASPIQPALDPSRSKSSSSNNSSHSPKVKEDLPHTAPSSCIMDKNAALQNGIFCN
Method: as §2, §3

[4] = biological target: T3, human S1P1 Receptor fused to the green fluorescent protein (EGFP) (Homo sapiens, UniProt P21453); assay: Internalization of S1P1 in S1P1-U2OS cells by cell imaging analysis; assay type: cell-based; settings: 1 hour incubation, 384-well
T3 construct: host or cells: U2OS (human bone osteosarcoma epithelial cells), CMV promoter, geneticin selection
T3 sequence (P21453 with tags, fused parts or gaps): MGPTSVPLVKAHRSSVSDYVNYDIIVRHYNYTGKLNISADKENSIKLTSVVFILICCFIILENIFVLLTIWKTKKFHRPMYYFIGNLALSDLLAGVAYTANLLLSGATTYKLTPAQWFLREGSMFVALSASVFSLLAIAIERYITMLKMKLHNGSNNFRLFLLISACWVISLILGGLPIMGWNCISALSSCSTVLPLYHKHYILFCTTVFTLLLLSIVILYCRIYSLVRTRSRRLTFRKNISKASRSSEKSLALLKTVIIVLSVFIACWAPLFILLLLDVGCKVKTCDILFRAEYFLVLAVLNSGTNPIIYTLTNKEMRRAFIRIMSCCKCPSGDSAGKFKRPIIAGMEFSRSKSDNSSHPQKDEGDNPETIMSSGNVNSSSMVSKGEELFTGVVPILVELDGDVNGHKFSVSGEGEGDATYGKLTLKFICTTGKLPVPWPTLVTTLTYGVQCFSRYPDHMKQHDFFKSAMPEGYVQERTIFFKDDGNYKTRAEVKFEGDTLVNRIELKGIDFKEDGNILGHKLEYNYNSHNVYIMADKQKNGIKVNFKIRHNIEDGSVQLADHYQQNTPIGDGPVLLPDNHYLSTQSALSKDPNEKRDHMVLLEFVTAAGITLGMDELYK
Procedure, shortened: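 Human U2OS osteosarcoma cells stably expressed human S1P1-EGFP. After 2 h serum starvation in 0.1% fatty-acid-free BSA medium, cells were treated with compounds for 1 h at 37 °C. Cells were then fixed and Hoechst-stained, and internalization was imaged as spots (receptor) per nucleus.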

S1P3 [5] = biological target: T2, S1P3; assay: Receptor binding assay, [33P]sphingosine 1-phosphate competition, S1P3
Procedure, shortened: as §1

[6] = 96 well-plate, read-out: S1P1 binding IC50 (M) (96 well-plate)
[7] = 384 well-plate, read-out: S1P1 binding IC50 (M) (384 well-plate)
[8] = 96 well-plate, read-out: S1P3 binding IC50 (M) (96 well-plate)

T1 sequence (P21453 whole entry, species assumed): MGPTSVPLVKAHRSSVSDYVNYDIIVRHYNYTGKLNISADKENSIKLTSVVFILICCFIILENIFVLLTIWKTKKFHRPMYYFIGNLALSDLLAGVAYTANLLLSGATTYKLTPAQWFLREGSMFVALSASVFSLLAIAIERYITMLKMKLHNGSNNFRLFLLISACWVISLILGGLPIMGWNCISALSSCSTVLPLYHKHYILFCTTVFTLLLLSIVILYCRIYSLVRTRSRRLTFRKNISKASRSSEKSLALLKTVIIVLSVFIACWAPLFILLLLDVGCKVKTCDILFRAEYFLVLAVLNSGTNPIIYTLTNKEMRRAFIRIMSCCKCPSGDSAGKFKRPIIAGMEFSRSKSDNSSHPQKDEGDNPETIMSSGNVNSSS

Compound	IC50 (S1P1 [1]; [6])	EC50 (S1P1 [2])	also measured
COCc1cc(-c2nc(-c3ccc(N)nc3)no2)ccc1N1CCCC1C (stereo not shown) [Example 33, 5-{5-[3-(methoxymethyl)-4-(2-methylpyrrolidin-1-yl)phenyl]-1,2,4-oxadiazol-3-yl}pyridin-2-amine]	5.37e-08 M	7.39 nM	–
CCC1CCCCN1c1ccc(-c2nc(-c3ccc(N)nc3)no2)cc1COC (stereo not shown) [Example 27, 5-{5-[4-(2-ethylpiperidin-1-yl)-3-(methoxymethyl)phenyl]-1,2,4-oxadiazol-3-yl}pyridin-2-amine]	5.7e-09 M	13.4 nM	EC50 (S1P3 [3]): 1660 nM
COCc1cc(-c2nc(-c3ccc(O)nc3)no2)ccc1N1CCCCC1C (stereo not shown) [Example 22, 5-{5-[3-(methoxymethyl)-4-(2-methylpiperidin-1-yl)phenyl]-1,2,4-oxadiazol-3-yl}pyridin-2-ol]	1.3e-09 M	5.29 nM	EC50 (S1P3 [3]): 153 nM
COCc1cc(-c2nc(-c3cnc(N)c(C)c3)no2)ccc1-c1ccccc1C [Example 18, 5-{5-[2-(methoxymethyl)-2′-methylbiphenyl-4-yl]-1,2,4-oxadiazol-3-yl}-3-methylpyridin-2-amine, hydrochloride salt]	4.33e-09 M	4.87 nM	IC50 (S1P1 [1]; [7]): 1.52e-08 M; EC50 [4]: 49.4 nM; IC50 (S1P3 [5]; [8]): 2.21e-05 M
COCc1cc(-c2nc(-c3ccc(N)nc3)no2)ccc1N1CCCCC1C (stereo not shown) [Example 9, 5-{5-[3-(methoxymethyl)-4-(2-methylpiperidin-1-yl)phenyl]-1,2,4-oxadiazol-3-yl}pyridin-2-amine]	4.29e-09 M	1.77 nM	EC50 (S1P3 [3]): 2620 nM
CC1CCCCN1c1ccc(-c2nc(-c3ccc(N)nc3)no2)cc1C(F)(F)F (stereo not shown) [Example 20, 5-{5-[4-(2-methylpiperidin-1-yl)-3-(trifluoromethyl)phenyl]-1,2,4-oxadiazol-3-yl}pyridin-2-amine]	1.03e-08 M	14.7 nM	–
COCc1cc(-c2nc(-c3ccc(N)nc3)no2)ccc1-c1ccccc1Cl [Example 32, 5-{5-[2′-chloro-2-(methoxymethyl)biphenyl-4-yl]-1,2,4-oxadiazol-3-yl}pyridin-2-amine]	1.39e-09 M	2.98 nM	IC50 (S1P1 [1]; [7]): 2.12e-08 M; EC50 [4]: 38.8 nM; IC50 (S1P3 [5]; [8]): 9.4e-06 M
COCc1cc(-c2nc(-c3ccnc(N(C)C)c3)no2)ccc1-c1ccccc1C [Example 6, 4-{5-[2-(methoxymethyl)-2′-methylbiphenyl-4-yl]-1,2,4-oxadiazol-3-yl}-N,N-dimethylpyridin-2-amine, hydrochloride salt]	–	145 nM	–
COCc1cc(-c2nc(-c3cnc(NCCC(=O)OC(C)(C)C)c(Cl)c3)no2)ccc1-c1ccccc1C [Example 35, tert-butyl N-(3-chloro-5-{5-[2-(methoxymethyl)-2′-methylbiphenyl-4-yl]-1,2,4-oxadiazol-3-yl}pyridin-2-yl)-beta-alaninate]	–	9.45 nM	–
CC1CCCCN1c1ccc(-c2nc(-c3cnc(N)c(Cl)c3)no2)cc1C(F)(F)F (stereo not shown) [Example 39, 3-chloro-5-{5-[4-(2-methylpiperidin-1-yl)-3-(trifluoromethyl)phenyl]-1,2,4-oxadiazol-3-yl}pyridin-2-amine]	–	32.6 nM	–
Cc1ccccc1-c1ccc(-c2nc(-c3ccc(N)nc3)no2)cc1C(F)(F)F [Example 19, 5-{5-[2′-methyl-2-(trifluoromethyl)biphenyl-4-yl]-1,2,4-oxadiazol-3-yl}pyridin-2-amine]	–	22.3 nM	–

Second part, led by results:

IC50 (S1P1 [1]; [6])	EC50 (S1P1 [2])	Compound	also measured
9.09e-09 M	5.12 nM	COCc1cc(-c2nc(-c3ccnc(NCCC(=O)O)c3)no2)ccc1-c1ccccc1C [Example 7, N-(4-{5-[2-(methoxymethyl)-2′-methylbiphenyl-4-yl]-1,2,4-oxadiazol-3-yl}pyridin-2-yl)-beta-alanine, hydrochloride salt]	EC50 (S1P3 [3]): 118 nM
–	22.2 nM	COCc1cc(-c2nc(-c3ccnc(NCC(=O)O)c3)no2)ccc1-c1ccccc1C [Example 11, N-(4-{5-[2-(methoxymethyl)-2′-methylbiphenyl-4-yl]-1,2,4-oxadiazol-3-yl}pyridin-2-yl)glycine, hydrochloride salt]	IC50 (S1P1 [1]; [7]): 6.42e-08 M; EC50 [4]: 244 nM; IC50 (S1P3 [5]; 384 well-plate, read-out: S1P3 binding IC50 (M) (384 well-plate)): 2.97e-06 M
–	152 nM	COCc1cc(-c2nc(-c3cnc(N)nc3)no2)ccc1-c1ccccc1C [Example 17, 5-{5-[2-(methoxymethyl)-2′-methylbiphenyl-4-yl]-1,2,4-oxadiazol-3-yl}pyrimidin-2-amine]	IC50 (S1P1 [1]; [7]): 2.92e-08 M; EC50 [4]: 152 nM
4.54e-09 M	5.25 nM	COCc1cc(-c2nc(-c3ccc(NCCO)nc3)no2)ccc1-c1ccccc1C [Example 28, 2-[(5-{5-[2-(methoxymethyl)-2′-methylbiphenyl-4-yl]-1,2,4-oxadiazol-3-yl}pyridin-2-yl)amino]ethanol]	–
5.26e-09 M	11.8 nM	COCCNc1ncc(-c2noc(-c3ccc(-c4ccccc4C)c(COC)c3)n2)cc1Cl [Example 34, 3-chloro-N-(2-methoxyethyl)-5-{5-[2-(methoxymethyl)-2′-methylbiphenyl-4-yl]-1,2,4-oxadiazol-3-yl}pyridin-2-amine]	–
–	45.2 nM	COCc1cc(-c2nc(-c3ccc(C(N)=O)nc3)no2)ccc1-c1ccccc1C [Example 26, 5-{5-[2-(methoxymethyl)-2′-methylbiphenyl-4-yl]-1,2,4-oxadiazol-3-yl}pyridine-2-carboxamide]	–
8.84e-09 M	1.63 nM	CCc1ccccc1-c1ccc(-c2nc(-c3ccc(N)nc3)no2)cc1COC [Example 12, 5-{5-[2′-ethyl-2-(methoxymethyl)biphenyl-4-yl]-1,2,4-oxadiazol-3-yl}pyridin-2-amine, hydrochloride salt]	–
–	14.6 nM	COCc1cc(-c2nc(-c3ccc(NC(C)=O)nc3)no2)ccc1-c1ccccc1C [Example 5, N-(5-{5-[2-(methoxymethyl)-2′-methylbiphenyl-4-yl]-1,2,4-oxadiazol-3-yl}pyridin-2-yl)acetamide, hydrochloride salt]	–
1.04e-08 M	3.52 nM	COCc1cc(-c2nc(-c3ccnc(N)c3)no2)ccc1-c1ccccc1C [Example 15, 4-{5-[2-(methoxymethyl)-2′-methylbiphenyl-4-yl]-1,2,4-oxadiazol-3-yl}pyridin-2-amine, hydrochloride salt]	EC50 [4]: 6 nM; EC50 (S1P3 [3]): 414 nM
–	43.8 nM	CNc1ccc(-c2noc(-c3ccc(-c4ccccc4C)c(COC)c3)n2)cn1 [Example 29, 5-{5-[2-(methoxymethyl)-2′-methylbiphenyl-4-yl]-1,2,4-oxadiazol-3-yl}-N-methylpyridin-2-amine]	–
–	131 nM	COCc1cc(-c2nc(-c3ccc(NCC(=O)O)nc3)no2)ccc1-c1ccccc1C [Example 3, N-(5-{5-[2-(methoxymethyl)-2′-methylbiphenyl-4-yl]-1,2,4-oxadiazol-3-yl}pyridin-2-yl)glycine, hydrochloride salt]	–
–	873 nM	COCc1cc(-c2nc(-c3ccc(N4CCCC4)nc3)no2)ccc1-c1ccccc1C [Example 31, 5-{5-[2-(methoxymethyl)-2′-methylbiphenyl-4-yl]-1,2,4-oxadiazol-3-yl}-2-pyrrolidin-1-ylpyridine]	–
4.83e-09 M	21.1 nM	COCc1cc(-c2nc(-c3ccc(NCCC(=O)O)nc3)no2)ccc1-c1ccccc1C [Example 2, N-(5-{5-[2-(methoxymethyl)-2′-methylbiphenyl-4-yl]-1,2,4-oxadiazol-3-yl}pyridin-2-yl)-beta-alanine, hydrochloride salt]	EC50 (S1P3 [3]): 1890 nM
4.76e-08 M	3.97 nM	COCc1cc(-c2nc(-c3ccc(O)nc3)no2)ccc1-c1ccccc1C [Example 21, 5-{5-[2-(methoxymethyl)-2′-methylbiphenyl-4-yl]-1,2,4-oxadiazol-3-yl}pyridin-2-ol]	EC50 (S1P3 [3]): 422 nM
